This is an account of results in ChEMBL document CHEMBL1143789, “Synthesis and biological study of medicinally important Mannich bases derived from 4-(dimethylamino)-1,4,4a,5,5a,6,11,12a-octahydro-3,6,10,12,12a pentahydroxy naphthacene carboxamide” (Bioorg Med Chem Lett, 2007).

SMILES strings stand for the structures.

Series [1] has as its system Pasteurella multocida. Description: Antibacterial activity against Pasteurella multocida at 30 mg/ml by paper disc method. In kind it is functional. The conditions noted are these: read-out: IZ.
The test system of series [2] is Salmonella enteritidis. Description: Antibacterial activity against Salmonella enteritidis at 20 mg/ml by paper disc method. In kind it is functional, Salmonella enterica subsp. enterica serovar Enteritidis. The conditions noted are these: Salmonella enterica; read-out: IZ.
Series [3] relates to Salmonella enteritidis. Nature of the series: Antibacterial activity against Salmonella enteritidis at 40 mg/ml by paper disc method. The class given is functional, Salmonella enterica subsp. enterica serovar Enteritidis. As to conditions: Salmonella enterica; read-out: IZ.
In series [4] the test system is Pasteurella multocida. Nature of the series: Antibacterial activity against Pasteurella multocida at 20 mg/ml by paper disc method. In kind it is functional. The conditions noted are these: read-out: IZ.
Series [5] concerns Pasteurella multocida. Description: Antibacterial activity against Pasteurella multocida at40 mg/ml by paper disc method. In kind it is functional.
Series [6] relates to Salmonella enteritidis. Description: Antibacterial activity against Salmonella enteritidis at 30 mg/ml by paper disc method. In kind it is functional, Salmonella enterica subsp. enterica serovar Enteritidis. The conditions noted are these: Salmonella enterica; read-out: IZ.
For series [7], the system named is Mus musculus. Nature of the series: Toxicity in mouse at 1000 mg/kg, ip after 72 hrs. The class given is organism-based. Also on record: dose 1000 mg/kg, route intraperitoneal. The conditions noted are these: in vivo.
Series [8] has as its system Mus musculus. Description: Toxicity in mouse at 1600 mg/kg, po after 72 hrs. The class given is organism-based. Also on record: dose 1600 mg/kg, route oral. As to conditions: in vivo.

For `Nc1ccc(S(=O)(=O)Nc2ncccn2)cc1` [SULFADIAZINE], the zone of inhibition at 30000 µg/mL with Pasteurella multocida [1] was 30 mm; in the series on Salmonella enteritidis [6], 15 mm. The zone of inhibition at 20000 µg/mL in the series with Salmonella enteritidis [2] was 10 mm; in the series with Pasteurella multocida [4] it was 28 mm. Also, in the series with Salmonella enteritidis [3], the zone of inhibition at 40000 µg/mL amounted to 20 mm. The “inhibition zone (IZ)” value in the series on Pasteurella multocida [5] stood at 39 mm.

On to `N=C(N)NS(=O)(=O)c1ccc(N)cc1` [SULFAGUANIDINE], for which the values for the zone of inhibition at 30000 µg/mL in the series with Pasteurella multocida [1] and in the series on Salmonella enteritidis [6] were 25 mm and 15 mm, respectively. In addition, the zone of inhibition at 20000 µg/mL was found to be 10 mm with Salmonella enteritidis [2] and 20 mm with Pasteurella multocida [4]. Besides, the zone of inhibition at 40000 µg/mL with Salmonella enteritidis [3] was determined as 18 mm. Besides, the “inhibition zone (IZ)” value in the series with Pasteurella multocida [5] is reported as 25 mm.

On to `CN(C)C1C(O)=C(C(=O)NCNc2ccc(S(=O)(=O)NC(=N)N)cc2)C(=O)C2(O)C(O)=C3C(=O)c4c(O)cccc4C(C)(O)C3CC12` (configuration not stated), for which the zone of inhibition at 30000 µg/mL in the series on Pasteurella multocida [1] turned out to be 24.3 mm; in the series on Salmonella enteritidis [6], 13.9 mm. The zone of inhibition at 20000 µg/mL with Salmonella enteritidis [2] is 13.2 mm; in the series with Pasteurella multocida [4], 24.1 mm. In the series with Salmonella enteritidis [3], the zone of inhibition at 40000 µg/mL was determined as 14.2 mm. The “inhibition zone (IZ)” value in the series with Pasteurella multocida [5] stood at 25.2 mm. Moreover, the Activity result is “Toxic” with Mus musculus [7] and “Non-toxic” with Mus musculus [8].

Take `CC(=O)NS(=O)(=O)c1ccc(N)cc1` [SULFACETAMIDE]: the zone of inhibition at 30000 µg/mL with Pasteurella multocida [1] was 21.2 mm. The zone of inhibition at 20000 µg/mL in the series on Pasteurella multocida [4] was 20.5 mm. In addition, the “inhibition zone (IZ)” value in the series with Pasteurella multocida [5] turned out to be 22.15 mm.

For `CC(=O)NS(=O)(=O)c1ccc(NCNC(=O)C2=C(O)C(N(C)C)C3CC4C(=C(O)C3(O)C2=O)C(=O)c2c(O)cccc2C4(C)O)cc1` (configuration not stated), the zone of inhibition at 30000 µg/mL in the series on Pasteurella multocida [1] came out at 27.3 mm. Also, the zone of inhibition at 20000 µg/mL in the series on Pasteurella multocida [4] turned out to be 26.2 mm. Further, the “inhibition zone (IZ)” value in the series with Pasteurella multocida [5] amounted to 28.3 mm. Further, the figures for the Activity result with Mus musculus [7] and with Mus musculus [8] were “Toxic” and “Non-toxic”, respectively.

For the molecule `Cc1cc(NS(=O)(=O)c2ccc(NCNC(=O)C3=C(O)C(N(C)C)C4CC5C(=C(O)C4(O)C3=O)C(=O)c3c(O)cccc3C5(C)O)cc2)no1` (configuration not stated), the zone of inhibition at 30000 µg/mL came to 22 mm in the series on Pasteurella multocida [1] and 21.2 mm in the series on Salmonella enteritidis [6]. In addition, the results for the zone of inhibition at 20000 µg/mL in the series on Salmonella enteritidis [2] and in the series on Pasteurella multocida [4] were 21.1 mm and 21.3 mm, respectively. Further, in the series with Salmonella enteritidis [3], the zone of inhibition at 40000 µg/mL is 22.1 mm. Moreover, the “inhibition zone (IZ)” value in the series with Pasteurella multocida [5] is recorded as 23.2 mm. Also, the values for the Activity result with Mus musculus [7] and with Mus musculus [8] were “Toxic” and “Non-toxic”, respectively.

As to `Nc1ccc(S(N)(=O)=O)cc1` [SULFANILAMIDE], the zone of inhibition at 30000 µg/mL in the series with Pasteurella multocida [1] was found to be 25 mm; with Salmonella enteritidis [6], 12 mm. The zone of inhibition at 20000 µg/mL in the series on Salmonella enteritidis [2] was 10 mm; with Pasteurella multocida [4], 22 mm. The zone of inhibition at 40000 µg/mL with Salmonella enteritidis [3] was 16 mm. Also, the “inhibition zone (IZ)” value with Pasteurella multocida [5] was 28 mm.

Regarding `COc1ncnc(NS(=O)(=O)c2ccc(NCNC(=O)C3=C(O)C(N(C)C)C4CC5C(=C(O)C4(O)C3=O)C(=O)c3c(O)cccc3C5(C)O)cc2)c1OC` (configuration not stated), the zone of inhibition at 30000 µg/mL in the series on Pasteurella multocida [1] stood at 23.3 mm; with Salmonella enteritidis [6] it was 15.2 mm. Also, the zone of inhibition at 20000 µg/mL in the series with Salmonella enteritidis [2] turned out to be 15 mm; with Pasteurella multocida [4], 22.1 mm. In the series on Salmonella enteritidis [3], the zone of inhibition at 40000 µg/mL is 15.5 mm. Also, in the series on Pasteurella multocida [5], the “inhibition zone (IZ)” value is on record as 24.4 mm. For the same molecule, the results for the Activity result in the series on Mus musculus [7] and in the series with Mus musculus [8] were “Toxic” and “Non-toxic”, respectively.

`CN(C)C1C(O)=C(C(=O)NCNc2ccc(S(=O)(=O)Nc3ncccn3)cc2)C(=O)C2(O)C(O)=C3C(=O)c4c(O)cccc4C(C)(O)C3CC12` (configuration not stated): the zone of inhibition at 30000 µg/mL amounted to 20.8 mm with Pasteurella multocida [1] and 20.9 mm in the series with Salmonella enteritidis [6]. For the same molecule, the zone of inhibition at 20000 µg/mL is 20 mm in the series on Salmonella enteritidis [2] and 20.4 mm with Pasteurella multocida [4]. Also, the zone of inhibition at 40000 µg/mL in the series on Salmonella enteritidis [3] worked out at 21.2 mm. In addition, the “inhibition zone (IZ)” value with Pasteurella multocida [5] was found to be 21.86 mm. Also, the results for the Activity entry in the series on Mus musculus [7] and with Mus musculus [8] were “Toxic” and “Non-toxic”, respectively.

In the case of `CN(C)C1C(O)=C(C(=O)NCNc2ccc(S(N)(=O)=O)cc2)C(=O)C2(O)C(O)=C3C(=O)c4c(O)cccc4C(C)(O)C3CC12` (configuration not stated), the zone of inhibition at 30000 µg/mL with Pasteurella multocida [1] turned out to be 28.6 mm; with Salmonella enteritidis [6] it was 15 mm. In addition, the results for the zone of inhibition at 20000 µg/mL in the series on Salmonella enteritidis [2] and in the series on Pasteurella multocida [4] were 14.7 mm and 28.4 mm, respectively. For the same molecule, the zone of inhibition at 40000 µg/mL with Salmonella enteritidis [3] came out at 16 mm. The “inhibition zone (IZ)” value in the series with Pasteurella multocida [5] is listed as 29.08 mm. Moreover, the Activity result with Mus musculus [7] is reported as “Toxic”; in the series on Mus musculus [8] it was “Non-toxic”.

In the case of `Cc1cc(NS(=O)(=O)c2ccc(N)cc2)no1` [SULFAMETHOXAZOLE], the zone of inhibition at 30000 µg/mL with Pasteurella multocida [1] was found to be 26 mm; in the series with Salmonella enteritidis [6], 15 mm. In addition, the zone of inhibition at 20000 µg/mL in the series on Salmonella enteritidis [2] turned out to be 15 mm; with Pasteurella multocida [4] it was 24 mm. Also, the zone of inhibition at 40000 µg/mL with Salmonella enteritidis [3] was 18 mm. Further, the “inhibition zone (IZ)” value in the series on Pasteurella multocida [5] was determined as 28 mm.
